Tested on: fecal metabolome
Test: Fecal metabolome analysis (GC-MS peak height, PCA, OPLS-DA) in STAM model of NASH
Format: in vivo, C57BL/6J mice

`CCCc1nc2c(C)cc(-c3nc4ccccc4n3C)cc2n1Cc1ccc(-c2ccccc2C(=O)O)cc1` [Telmisartan] was tested, and the “Peak height after normalization, 2-Aminobutyric acid-2TMS” value (Difference) was 17954.52, the “Peak height after normalization, 2-Hydroxyisobutyric acid-2TMS” value (Difference) was 133880.36 and the “Peak height after normalization, 3-Aminoglutaric acid-3TMS” value (Difference) was 8627.53. The “Peak height after normalization, 3-Hydroxybutyric acid-2TMS” value (Difference) was −4608.17, the “Peak height after normalization, 5-Aminovaleric acid-3TMS” value (Difference) was 26394.02 and the “Peak height after normalization, Glutamic acid-3TMS” value (Difference) was 382709.41. For the same compound, the “Peak height after normalization, Glutamine-3TMS” value (Difference) was 30745.13, the “Peak height after normalization, Glycine-3TMS” value (Difference) was 109331.29 and the “Peak height after normalization, Hypoxanthine-2TMS” value (Difference) was 23680.72. The “Peak height after normalization, Lactic acid-2TMS” value (Difference) was −35605.88, the “Peak height after normalization, Leucine-2TMS” value (Difference) was 267732.46 and the “Peak height after normalization, Lysine-4TMS” value (Difference) was 360841.28. For the same compound, the “Peak height after normalization, Malic acid-3TMS” value (Difference) was −16354.66, the “Peak height after normalization, Norvaline-TMS” value (Difference) was 37744.18 and the “Peak height after normalization, Phosphoric acid-3TMS” value (Difference) was 15228.48. For the same compound, the “Peak height after normalization, Proline-2TMS” value (Difference) was 52750.51, the “Peak height after normalization, Succinic acid-2TMS” value (Difference) was 50806.69 and the “Peak height after normalization, Taurine-3TMS” value (Difference) was 9869.33. The “Peak height after normalization, Tyrosine-3TMS” value (Difference) was 116635.49, the “Peak height after normalization, Uracil-2TMS” value (Difference) was −3276.22 and the “Peak height after normalization, Valine-2TMS” value (Difference) was 267808.23. For the same compound, the “Peak height after normalization, 2-Aminobutyric acid-2TMS” value (Post) was 43700.57, the “Peak height after normalization, 3-Aminoglutaric acid-3TMS” value (Post) was 12436.04 and the “Peak height after normalization, 3-Hydroxybutyric acid-2TMS” value (Post) was 10891.34. The “Peak height after normalization, Alanine-2TMS” value (Post) was 1268525.27, the “Peak height after normalization, Glycerol-3TMS” value (Post) was 324467.91 and the “Peak height after normalization, Glycine-3TMS” value (Post) was 288456.14. For the same compound, the “Peak height after normalization, Isoleucine-2TMS” value (Post) was 381173.16, the “Peak height after normalization, Lactic acid-2TMS” value (Post) was 36363.66 and the “Peak height after normalization, Leucine-2TMS” value (Post) was 631954.96. The “Peak height after normalization, Lysine-4TMS” value (Post) was 952876.14, the “Peak height after normalization, Malic acid-3TMS” value (Post) was 38544.73 and the “Peak height after normalization, Methionine-2TMS” value (Post) was 168797.44. For the same compound, the “Peak height after normalization, Norvaline-TMS” value (Post) was 110365.67, the “Peak height after normalization, Phenylalamine-2TMS” value (Post) was 342996.16 and the “Peak height after normalization, Phosphoric acid-3TMS” value (Post) was 122301.92. For the same compound, the “Peak height after normalization, Proline-2TMS” value (Post) was 151136.53, the “Peak height after normalization, Taurine-3TMS” value (Post) was 24726.77 and the “Peak height after normalization, Tryptophan-3TMS” value (Post) was 28678.00. For the same compound, the “Peak height after normalization, Uracil-2TMS” value (Post) was 71567.16, the “Peak height after normalization, Valine-2TMS” value (Post) was 521841.20 and the “Peak height after normalization, Xanthine-3TMS” value (Post) was 103194.40. The “Peak height after normalization, 3-Aminoglutaric acid-3TMS” value (Pre) was 3808.51, the “Peak height after normalization, 3-Hydroxybutyric acid-2TMS” value (Pre) was 15499.52 and the “Peak height after normalization, 5-Aminovaleric acid-3TMS” value (Pre) was 28517.91. The “Peak height after normalization, 5-Oxoproline-2TMS” value (Pre) was 113169.35, the “Peak height after normalization, #Sz,899;-3TMS” value (Pre) was 124526.34 and the “Peak height after normalization, Aspartic acid-3TMS” value (Pre) was 183416.60. The “Peak height after normalization, Glycerol-3TMS” value (Pre) was 283873.86, the “Peak height after normalization, Hypoxanthine-2TMS” value (Pre) was 33144.25 and the “Peak height after normalization, Isoleucine-2TMS” value (Pre) was 175687.57. The “Peak height after normalization, Lactic acid-2TMS” value (Pre) was 71969.33, the “Peak height after normalization, Lysine-4TMS” value (Pre) was 592034.86 and the “Peak height after normalization, Malic acid-3TMS” value (Pre) was 54899.38. The “Peak height after normalization, Methionine-2TMS” value (Pre) was 103825.98, the “Peak height after normalization, Norvaline-TMS” value (Pre) was 72621.50 and the “Peak height after normalization, Phenylalamine-2TMS” value (Pre) was 208441.78. For the same compound, the “Peak height after normalization, Phosphoric acid-3TMS” value (Pre) was 107073.44, the “Peak height after normalization, Succinic acid-2TMS” value (Pre) was 263097.91 and the “Peak height after normalization, Taurine-3TMS” value (Pre) was 14857.44. The “Peak height after normalization, Tryptophan-3TMS” value (Pre) was 16169.30, the “Peak height after normalization, Tyrosine-3TMS” value (Pre) was 309190.46 and the “Peak height after normalization, Uracil-2TMS” value (Pre) was 74843.38. For the same compound, the “Peak height after normalization, Valine-2TMS” value (Pre) was 254032.97 and the “Peak height after normalization, Xanthine-3TMS” value (Pre) was 101684.60.

Reference: patent US20240374631A1, “A COMPOSITION FOR IMPROVING GUT MICROBIOTA, BEHAVIOURAL PATTERN, ALPHA-SYNUCLEIN LEVELS, SLEEP PATTERN AND/OR SERUM MELATONIN” (GN Corporation Co Ltd, priority 2021, published 2024)
